Reference: patent US10138233B2, “Imidazole compounds as modulators of FSHR and uses thereof” (Merck Patent GmbH, priority 2013, dated 2018)
pEC50: −log10 of the molar value.

Target: T1, FSHR (Homo sapiens, UniProt P23945)
T1 construct: expressed in transfected cells; host or cells: CHO cells, clone Cho-FSHR-LUC-1-1-43
T1 sequence (P23945 18-695): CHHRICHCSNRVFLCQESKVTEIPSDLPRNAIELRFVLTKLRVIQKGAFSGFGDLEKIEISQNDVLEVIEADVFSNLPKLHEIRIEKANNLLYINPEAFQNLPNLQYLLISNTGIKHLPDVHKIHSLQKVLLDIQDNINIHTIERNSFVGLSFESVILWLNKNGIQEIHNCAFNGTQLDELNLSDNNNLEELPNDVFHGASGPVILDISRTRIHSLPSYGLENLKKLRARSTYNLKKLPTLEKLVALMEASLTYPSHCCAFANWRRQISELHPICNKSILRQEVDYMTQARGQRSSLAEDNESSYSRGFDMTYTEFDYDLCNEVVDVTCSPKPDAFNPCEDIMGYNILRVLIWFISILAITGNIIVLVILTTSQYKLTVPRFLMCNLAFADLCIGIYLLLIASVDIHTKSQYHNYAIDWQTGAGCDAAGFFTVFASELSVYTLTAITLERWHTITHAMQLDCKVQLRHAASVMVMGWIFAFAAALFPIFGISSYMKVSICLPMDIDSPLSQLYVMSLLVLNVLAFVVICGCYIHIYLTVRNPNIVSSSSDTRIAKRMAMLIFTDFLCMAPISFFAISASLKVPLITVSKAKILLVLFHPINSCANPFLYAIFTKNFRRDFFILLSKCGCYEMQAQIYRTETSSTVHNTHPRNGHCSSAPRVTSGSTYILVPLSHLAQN
Assay: EC50 of cyclic AMP production in CHO FSHR cells + EC20 FSH (Assay A)
Type: cell-based
Conditions: CHO-FSHR-LUC cells, in presence of EC20 FSH, cAMP HTRF, 1 h 37° C.
Procedure: EC50 of cyclic AMP production in CHO FSHR cells+EC20 FSH (Assay A)
2500 Cho-FSHR-LUC-1-1-43 cells were plated per well in 5 μl of phenol red free DMEM/F12+1% FBS. […] Cells were assayed by adding 100 μl of 2×EC20 FSH/IBMX in DMEM/F12+0.1% BSA) by Multidrop to 2 μl of test compound stamped in 384 well plates (compounds are diluted 1:50). […] The compound plate map was as follows: Column 1: 2 μl of DMSO; Column 2: 2 μl of DMSO; Columns 3-12 and 13-24: 2 μl of test compound, diluted 1:4 in 100% DMSO, or 2 μl of FSH, diluted 1:4 in DMEM/F12+0.1% BSA. The starting concentration for FSH was 50 nM (final concentration was 0.5 nM). […] 10 μl of mixed HTRF (CisBio #62AM4PEC) reagents were added per well and incubated at room temperature for 1 h. The plates were read on Envision using the cAMP HTRF—low volume 384 well protocol. […] Values given in percent (%) indicate the percental effect (response) at a certain concentration of agonist relative to the maximum response of the FSH standard.

SMILES | pEC50
COc1cc2c(cc1CC(C)C)-n1c(-c3cn[nH]c3)nc(C(=O)N(C)C(C)(C)C)c1CC2 [Compound 23, 8-Isobutyl-7-methoxy-1-(1H-pyrazol-4-yl)-4,5-dihydro-imidazo[1,5-a]quinoline-3-carboxylic acid tert-butyl-methyl-amide] | 5.30 to 6.00
COc1cc2c(cc1OC(C)C)-n1c(-c3cc(Cl)ccc3OC)nc(C(=O)N3CCOCC3(C)C)c1CC2 [Compound 105] | 5.30 to 6.00
COc1cc2c(cc1OC(C)C)-n1c(-c3ccc(C)c(F)c3)nc(C(=O)N3CCOCC3(C)C)c1CC2 [Compound 126] | 6.00 to 7.00
COc1cc2c(cc1CC(C)C)-n1c(-c3cccs3)nc(C(=O)N3CCOCC34COC4)c1CC2 [Compound 56, (2,8-Dioxa-5-aza-spiro[3.5]non-5-yl)-(8-isobutyl-7-methoxy-1-thiophen-2-yl-4,5-dihydro-imidazo[1,5-a]quinolin-3-yl)-methanone] | > 7.00
COc1cc2c(cc1CC(C)C)-n1c(-c3cccs3)nc(C(=O)N(C)C(C)(C)C)c1CC2 [Compound 17, 8-Isobutyl-7-methoxy-1-thiophen-2-yl-4,5-dihydro-imidazo[1,5-a]quinoline-3-carboxylic acid tert-butyl-methyl-amide] | > 7.00
COc1cc2c(cc1OC(C)C)-n1c(-c3cnn(C)c3C)nc(C(=O)N3CCOCC3(C)C)c1CC2 [Compound 35] | < 5.30
CCn1nccc1-c1nc(C(=O)N2CCOCC2(C)C)c2n1-c1cc(OC(C)C)c(OC)cc1CC2 [Compound 92] | 6.00 to 7.00
COc1cc2c(cc1OC(C)C)-n1c(-c3cn(C)cn3)nc(C(=O)N3CCOCC3(C)C)c1CC2 [Compound 46] | < 5.30
COc1cc2c(cc1OC(C)C)-n1c(-c3ccnn3CC(C)C)nc(C(=O)N3CCOCC3(C)C)c1CC2 [Compound 87] | 5.30 to 6.00
COc1cc2c(cc1OC(C)C)-n1c(C3=CCOCC3)nc(C(=O)N3CCOCC3(C)C)c1CC2 [Compound 79] | 6.00 to 7.00
COC/C=C/c1nc(C(=O)N2CCOCC2(C)C)c2n1-c1cc(OC(C)C)c(OC)cc1CC2 [Compound 51] | 5.30 to 6.00
COc1cc2c(cc1OC(C)C)-n1c(-c3ccc(C)cc3)nc(C(=O)N(C)C(C)(C)C)c1CC2 [Compound 63] | 6.00 to 7.00
COc1cc2c(cc1CC(C)C)-n1c(-c3cn[nH]c3C)nc(C(=O)N3CCOCC3(C)C)c1CC2 [Compound 27, (3,3-Dimethyl-morpholin-4-yl)-[8-isobutyl-7-methoxy-1-(5-methyl-1H-pyrazol-4-yl)-4,5-dihydro-imidazo[1,5-a]quinolin-3-yl]-methanone] | 5.30 to 6.00
COc1cc2c(cc1OC(C)C)-n1c(-c3cccs3)nc(C(=O)NC3(C)COC3)c1CO2 [Compound 138, 8-Isopropoxy-7-methoxy-1-thiophen-2-yl-4H-5-oxa-2,9b-diaza-cyclopenta[a]naphthalene-3-carboxylic acid (3-methyl-oxetan-3-yl)-amide] | 5.30 to 6.00
COc1cc2c(cc1OC(C)C)-n1c(-c3cc(F)c(F)c(Cl)c3)nc(C(=O)N3CCOCC3(C)C)c1CC2 [Compound 122] | 6.00 to 7.00
CCCn1nc(C)cc1-c1nc(C(=O)N2CCOCC2(C)C)c2n1-c1cc(OC(C)C)c(OC)cc1CC2 [Compound 91] | 5.30 to 6.00
COc1cc2c(cc1CC(C)C)-n1c(-c3cccs3)nc(C(=O)NC3(C)COC3)c1CC2 [Compound 55, 8-Isobutyl-7-methoxy-1-thiophen-2-yl-4,5-dihydro-imidazo[1,5-a]quinoline-3-carboxylic acid (3-methyl-oxetan-3-yl)-amide] | 6.00 to 7.00
COc1cc2c(cc1OC(C)C)-n1c(-c3ccc(C#N)c(C(F)(F)F)c3)nc(C(=O)N3CCOCC3(C)C)c1CC2 [Compound 124] | 5.30 to 6.00

SMILES | pEC50
COc1cc2c(cc1OC(C)C)-n1c(-c3ccsc3C)nc(C(=O)N3CCOCC3(C)C)c1CC2 [Compound 106] | 6.00 to 7.00
COc1ccc(-c2nc(C(=O)N3CCOCC3(C)C)c3n2-c2cc(OC(C)C)c(OC)cc2CC3)cc1F [Compound 118] | < 5.30
COc1cc2c(cc1OC(C)C)-n1c(-c3cc(C(F)(F)F)cc(C(F)(F)F)c3)nc(C(=O)N3CCOCC3(C)C)c1CC2 [Compound 119] | 6.00 to 7.00
COc1cc2c(cc1OC(C)C)-n1c(-c3cccs3)nc(C(=O)NC3(CO)COC3)c1CO2 [Compound 137, 8-Isopropoxy-7-methoxy-1-thiophen-2-yl-4H-5-oxa-2,9b-diaza-cyclopenta[a]naphthalene-3-carboxylic acid (3-hydroxymethyl-oxetan-3-yl)-amide] | 5.30 to 6.00
COc1cc2c(cc1OC(C)C)-n1c(-c3cn[nH]c3)nc(C(=O)N3CCOCC3(C)C)c1CC2 [Compound 61] | < 5.30
COc1cc2c(cc1OC(C)C)-n1c(C3=CCCN(C)C3)nc(C(=O)N3CCOCC3(C)C)c1CC2 [Compound 93] | < 5.30
COc1cc2c(cc1CC(C)C)-n1c(-c3cccs3)nc(C(=O)N3CCOCC3(C)C)c1CC2 [Compound 20, (3,3-Dimethyl-morpholin-4-yl)-(8-isobutyl-7-methoxy-1-thiophen-2-yl-4,5-dihydro-imidazo[1,5-a]quinolin-3-yl)-methanone] | > 7.00
COc1cc2c(cc1OC(C)C)-n1c(-c3ccc(F)c(Cl)c3)nc(C(=O)N3CCOCC3(C)C)c1CC2 [Compound 116] | 6.00 to 7.00
COc1cc2c(cc1OC(C)C)-n1c(C3CCOCC3)nc(C(=O)N3CCOCC3(C)C)c1CC2 [Compound 84, (3,3-Dimethyl-morpholin-4-yl)-[8-isopropoxy-7-methoxy-1-(tetrahydro-pyran-4-yl)-4,5-dihydro-imidazo[1,5-a]quinolin-3-yl]-methanone] | < 5.30
COc1cc2c(cc1OC)-n1c(-c3ccsc3)nc(C(=O)N(C)C(C)(C)C)c1CC2 [Compound 2, 7,8-Dimethoxy-1-thiophen-3-yl-4,5-dihydro-imidazo[1,5-a]quinoline-3-carboxylic acid tert-butyl-methyl-amide] | 6.00 to 7.00
COc1cc2c(cc1OC(C)C)-n1c(-c3cccc4[nH]ncc34)nc(C(=O)N3CCOCC3(C)C)c1CC2 [Compound 81] | 5.30 to 6.00
COc1cc2c(cc1OC(C)C)-n1c(-c3ccsc3)nc(C(=O)N3CCCN(C(=O)N4CCC4)CC3)c1CC2 [Compound 10] | 6.00 to 7.00
COc1cc2c(cc1OC(C)C)-n1c(-c3cncnc3)nc(C(=O)N3CCOCC3(C)C)c1CC2 [Compound 45] | 6.00 to 7.00
COc1ccc(-c2nc(C(=O)N3CCOCC3(C)C)c3n2-c2cc(OC(C)C)c(OC)cc2CC3)cc1C [Compound 125] | 5.30 to 6.00
COc1cc2c(cc1OC(C)C)-n1c(-c3ccc(C#N)cc3)nc(C(=O)N(C)C(C)(C)C)c1CC2 [Compound 64] | 5.30 to 6.00
COc1cc2c(cc1OC(C)C)-n1c(-c3cc(Cl)ccc3F)nc(C(=O)N3CCOCC3(C)C)c1CC2 [Compound 101] | 6.00 to 7.00
COc1cc2c(cc1CC(C)C)-n1c(-c3cc(C)cs3)nc(C(=O)N(C)C(C)(C)C)c1CC2 [Compound 95, 8-Isobutyl-7-methoxy-1-(4-methyl-thiophen-2-yl)-4,5-dihydro-imidazo[1,5-a]quinoline-3-carboxylic acid tert-butyl-methyl-amide] | 6.00 to 7.00
COc1cc2c(cc1OC(C)C)-n1c(-c3ccc(F)c(C#N)c3)nc(C(=O)N3CCOCC3(C)C)c1CC2 [Compound 107] | < 5.30
